The nature of data set [1]: Conductometric titration: limiting molar conductance and association constants. Particulars: 298.15 K. The format is physicochemical. The procedure: Conductometric measurements were accomplished on the Cerko Lab System microtitration unit fitted with a 5-mL Hamilton’s syringe, a CD-201 conductometric cell with the constant k = 0.096 cm^−1 (HYDROMET) and a self-made measuring cell equipped with a magnetic stirrer. The conductometric electrode was standardized with conductivity standards (aqueous KCl solutions) of conductivity 84 and 200 μS/cm, purchased from Hamilton Company. The measurements were carried out at 298.15 ± 0.10 K controlled by the Lauda E100 circulation thermostat. The titrant (5 mM [Co(ODA)(H2O)] or [Ni(ODA)(H2O)3]) was added to the titrand (0–50 % v/v DMSO-H2O) both at the same mole fraction of organic solvent, in increments of 0.01 mL, with a pause of 60 s. Each titration was repeated at least three times in order to check the reproducibility of the data. The limiting molar conductance values (Λo) and the association constants (logK ass) for the nickel(II) and cobalt(II) complexes were computed using the Shedlovsky’s and Pitt’s method. The physicochemical parameters of the binary solvents used in the calculations were taken from the literature. They are collected in Table 1.
The limiting molar conductance values (Λo) and the association constants (logK ass) for the nickel(II) and cobalt(II) complexes were computed using Shedlovsky’s and Pitt’s equations and are consequently collected in Table 4.

Another data set relates to Enterococcus faecalis. The experiment in a line: Disc diffusion test. To be noted: E. faecalis. Format: cell-based. How it is done: (§1) The antimicrobial activity of complex compounds was assessed against Bacillus subtilis, Escherichia coli, Enterococcus faecalis, Pseudomonas aeruginosa, Staphylococcus aureus, Staphylococcus epidermidis (all strains were from the collection of the Department of Molecular Biology, University of Gdańsk). All bacteria were cultured in the Luria-Bertani (LB) broth at 310.15 K in the air with shaking. LB agar plates were prepared by the supplementation of LB broth with the 1.5 % bacteriological agar. Stock solutions of complex compounds were freshly prepared in the LB broth at the concentration of 25 mg/mL. Aliquots of 0.05 mL of bacterial culture at the optical density at 600 nm of 0.1 (inoculum 5 × 10^6 cells per plate) were spread on LB agar plates. Sterile filter paper discs (of 6 mm diameter) were impregnated with solutions of complex compounds prepared in the deionized water at the following amounts: 0.1, 0.2, 0.5 and 1.0 mg per disc and placed on agar plates. After an overnight incubation at 310.15 K, zones of bacterial growth inhibition were measured. Neomycin at the amount of 0.1 mg/disc was used as a control.

The test system of another data set is Staphylococcus aureus. Kind of data set: Disc diffusion test. Format: cell-based. To be noted: S. aureus. How it is done: as §1
On the technique in general: A growth-free zone around the sample is the usual read-out of agar diffusion tests.

For the next data set, the system named is Escherichia coli. Kind of data set: Disc diffusion test. Format: cell-based. Particulars: E. coli. How it is done: as §1
In the next data set the test system is Pseudomonas aeruginosa. Kind of data set: Disc diffusion test. The format is cell-based. Particulars: P. aeruginosa. How it is done:
as §1

The test system of data set [2] is Staphylococcus epidermidis. Kind of data set: Disc diffusion test. The format is cell-based. Particulars: S. epidermidis. How it is done:
as §1

[3] abbreviates: Pitts method, DMSO-water 0 % v/v.
[4] abbreviates: Pitts method, DMSO-water 10 % v/v.
Where [5] appears, read: Pitts method, DMSO-water 20 % v/v.
The mark [6] stands for this setting: Pitts method, DMSO-water 30 % v/v.
Where [7] appears, read: Pitts method, DMSO-water 40 % v/v.
Where [8] appears, read: Pitts method, DMSO-water 50 % v/v.
Where [9] appears, read: Shedlovsky method, DMSO-water 0 % v/v.
[10] abbreviates: Shedlovsky method, DMSO-water 10 % v/v.
The mark [11] stands for this setting: Shedlovsky method, DMSO-water 20 % v/v.
Where [12] appears, read: Shedlovsky method, DMSO-water 30 % v/v.
Setting [13] is: Shedlovsky method, DMSO-water 40 % v/v.
[14] abbreviates: Shedlovsky method, DMSO-water 50 % v/v.

We go through three molecules from publication PMC4352194, “Physicochemical and Biological Properties of Oxovanadium(IV), Cobalt(II) and Nickel(II) Complexes with Oxydiacetate Anions” (Biological Trace Element Research, 2014).

For `O.O.O.O=C(O)COCC(=O)O.[Co]` [Co(ODA), [Co(ODA)(H2O)2]·H2O], the “association constant logK ass” value in data set [1] (setting [3]) is 3.38 (±0.01); in data set [1] (setting [4]), 3.51 (±0.01); in data set [1] (setting [5]), 3.77 (±0.01); in data set [1] (setting [6]) it was 3.89 (±0.01); in data set [1] (setting [7]) it was 4.05 (±0.01); in data set [1] (setting [8]) it was 4.32 (±0.03). In addition, the “association constant logK ass” value is 3.35 (±0.01) in data set [1] (setting [9]); 3.49 (±0.01) in data set [1] (setting [10]); 3.77 (±0.01) in data set [1] (setting [11]); 3.89 (±0.01) in data set [1] (setting [12]); 4.09 (±0.03) in data set [1] (setting [13]); 4.22 (±0.02) in data set [1] (setting [14]). For the same molecule, the “limiting molar conductance Λo” value in data set [1] (setting [3]) was 226.58(±1.32) S cm^2 mol^−1; in data set [1] (setting [4]) it was 173.97(±0.60) S cm^2 mol^−1; in data set [1] (setting [5]), 134.29(±1.09) S cm^2 mol^−1; in data set [1] (setting [6]) it was 92.53(±0.96) S cm^2 mol^−1; in data set [1] (setting [7]), 57.02(±0.71) S cm^2 mol^−1; in data set [1] (setting [8]), 29.74(±1.46) S cm^2 mol^−1. Further, the “limiting molar conductance Λo” value in data set [1] (setting [9]) is listed as 223.49(±1.45) S cm^2 mol^−1; in data set [1] (setting [10]), 171.55(±0.74) S cm^2 mol^−1; in data set [1] (setting [11]), 133.47(±1.00) S cm^2 mol^−1; in data set [1] (setting [12]), 92.16(±1.07) S cm^2 mol^−1; in data set [1] (setting [13]) it was 55.24(±0.84) S cm^2 mol^−1; in data set [1] (setting [14]), 28.52(±1.58) S cm^2 mol^−1. The “Zone of growth inhibition” value came to 10 mm in the data set with Enterococcus faecalis (500 μg/disc); 15 mm with Enterococcus faecalis (1000 μg/disc); 7 mm in the data set on Staphylococcus aureus (100 μg/disc); 12 mm in the data set with Staphylococcus aureus (500 μg/disc); 17 mm with Staphylococcus aureus (1000 μg/disc); 12 mm with Escherichia coli (500 μg/disc). The “Zone of growth inhibition” value turned out to be 14 mm with Escherichia coli (1000 μg/disc); 14 mm in the data set with Pseudomonas aeruginosa (500 μg/disc); 18 mm in the data set with Pseudomonas aeruginosa (1000 μg/disc); 8 mm in data set [2] (100 μg/disc); 19 mm in data set [2] (500 μg/disc); 23 mm in data set [2] (1000 μg/disc).
As to `O.O.O.O.O.O.O.O.O.O=C([O-])COCC(=O)[O-].O=C([O-])COCC(=O)[O-].[Ni+2].[Ni+2]` [Ni(ODA), [Ni(ODA)(H2O)3]·1.5H2O], the “association constant logK ass” value in data set [1] (setting [3]) is given as 3.34 (±0.01); in data set [1] (setting [4]), 3.48 (±0.01); in data set [1] (setting [5]), 3.56 (±0.01); in data set [1] (setting [6]), 3.75 (±0.01); in data set [1] (setting [7]), 4.05 (±0.01); in data set [1] (setting [8]), 4.17 (±0.04). The “association constant logK ass” value was 3.33 (±0.01) in data set [1] (setting [9]); 3.47 (±0.01) in data set [1] (setting [10]); 3.59 (±0.01) in data set [1] (setting [11]); 3.74 (±0.01) in data set [1] (setting [12]); 4.05 (±0.02) in data set [1] (setting [13]); 4.15 (±0.03) in data set [1] (setting [14]). Besides, the “limiting molar conductance Λo” value in data set [1] (setting [3]) is reported as 216.74(±1.08) S cm^2 mol^−1; in data set [1] (setting [4]) it was 161.75(±0.93) S cm^2 mol^−1; in data set [1] (setting [5]) it was 114.72(±1.55) S cm^2 mol^−1; in data set [1] (setting [6]) it was 91.35(±1.33) S cm^2 mol^−1; in data set [1] (setting [7]), 52.00(±0.50) S cm^2 mol^−1; in data set [1] (setting [8]), 29.49(±0.92) S cm^2 mol^−1. The “limiting molar conductance Λo” value in data set [1] (setting [9]) was 216.10(±0.74) S cm^2 mol^−1; in data set [1] (setting [10]), 161.00(±0.95) S cm^2 mol^−1; in data set [1] (setting [11]) it was 119.83(±0.83) S cm^2 mol^−1; in data set [1] (setting [12]), 90.63(±1.37) S cm^2 mol^−1; in data set [1] (setting [13]), 51.85(±0.61) S cm^2 mol^−1; in data set [1] (setting [14]), 28.80(±0.48) S cm^2 mol^−1. Besides, the “Zone of growth inhibition” value was 7 mm in the data set with Staphylococcus aureus (500 μg/disc) and 8 mm in the data set on Staphylococcus aureus (1000 μg/disc).
Regarding `O.O.O=C([O-])COCC(=O)[O-].[O]=[V+2]` [VO(ODA), [VO(ODA)(H2O)2]], the results for the “Zone of growth inhibition” value (in the data set on Enterococcus faecalis (500 μg/disc); in the data set on Enterococcus faecalis (1000 μg/disc); in data set [2] (1000 μg/disc)) were 9 mm, 13 mm and 12 mm, respectively.
